Measured values reported in ChEMBL document CHEMBL4396872, “Pharmacokinetics-Driven Optimization of 4(3 H)-Pyrimidinones as Phosphodiesterase Type 5 Inhibitors Leading to TPN171, a Clinical Candidate for the Treatment of Pulmonary Arterial Hypertension” (J Med Chem, 2019).
Blank lines part the entries; values can stand above or below the compound they belong to. Activity calls are given as the source filed them. The calls are words filed in the database; no cut-off is given here.

How the values were obtained:
[1] = target: T1, cGMP-specific 3',5'-cyclic phosphodiesterase (Homo sapiens, UniProt O76074); assay: Inhibition of N-terminal GST-tagged human PDE5A1 expressed in baculovirus infected sf9 cells using [3H]cGMP as substrate measured after 30 mins by scintillation proximity assay
Homo sapiens = organism: Homo sapiens; assay: Selectivity ratio of IC50 for N-terminal GST-tagged human PDE6C to IC50 for N-terminal GST-tagged human PDE5A1
[2] = Metabolic stability in human liver microsomes assessed as parent compound remaining at 1 uM in presence of NADPH after 30 mins by LC-MS/MS analysis; format: ADME, Microsome; conditions: read-out: Stability
Rattus norvegicus [3] = assay: […] activity in MCT-induced pulmonary arterial hypertension Sprague-Dawley rat model assessed as reduction in mean pulmonary artery pressure at 1 mg/kg administered once daily for 21 days starting from 21 days post-MCT challenge by right cardiac catheter method; format: functional, organism-based
Rattus norvegicus [4] = assay: […] activity in MCT-induced pulmonary arterial hypertension Sprague-Dawley rat model assessed as reduction in mean pulmonary artery pressure at 25 mg/kg administered once daily for 21 days starting from 21 days post-MCT challenge by right cardiac catheter method; format: functional, organism-based
Rattus norvegicus [5] = assay: […] activity in MCT-induced pulmonary arterial hypertension Sprague-Dawley rat model assessed as reduction in mean pulmonary artery pressure at 100 mg/kg administered once daily for 21 days starting from 21 days post-MCT challenge by right cardiac catheter method; format: functional, organism-based
Phosphodiesterase 3 = Phosphodiesterase 3 (Homo sapiens, UniProt Q14432+Q13370); assay: Inhibition of N-terminal GST-tagged human PDE3 expressed in baculovirus infected sf9 cells using [3H]cAMP as substrate measured after 30 mins by scintillation proximity assay
[6] = target: cGMP-dependent 3',5'-cyclic phosphodiesterase (Homo sapiens, UniProt O00408); assay: Inhibition of human PDE2A1 expressed in baculovirus infected sf9 cells using [3H]cAMP as substrate measured after 30 mins by scintillation proximity assay
[7] = target: High affinity cAMP-specific and IBMX-insensitive 3',5'-cyclic phosphodiesterase 8A (Homo sapiens, UniProt O60658); assay: Inhibition of N-terminal GST-tagged full length human PDE8A1 expressed in baculovirus infected sf9 cells using [3H]cAMP as substrate measured after 30 mins by scintillation proximity assay
Phosphodiesterase 7 = Phosphodiesterase 7 (Homo sapiens, UniProt Q13946+Q9NP56); assay: Inhibition of N-terminal GST-tagged human PDE7 expressed in baculovirus infected sf9 cells using [3H]cAMP as substrate measured after 30 mins by scintillation proximity assay
[8] = target: High affinity cGMP-specific 3',5'-cyclic phosphodiesterase 9A (Homo sapiens, UniProt O76083); assay: Inhibition of N-terminal GST-tagged full length human PDE9A2 expressed in baculovirus infected sf9 cells using [3H]cGMP as substrate measured after 30 mins by scintillation proximity assay
[9] = target: cAMP and cAMP-inhibited cGMP 3',5'-cyclic phosphodiesterase 10A (Homo sapiens, UniProt Q9Y233); assay: Inhibition of N-terminal GST-tagged human PDE10A expressed in baculovirus infected sf9 cells using [3H]cAMP as substrate measured after 30 mins by scintillation proximity assay
Phosphodiesterase 1 = Phosphodiesterase 1 (Homo sapiens, UniProt P54750+Q01064+Q14123); assay: Inhibition of N-terminal GST-tagged human PDE1 expressed in baculovirus infected sf9 cells using [3H]cAMP as substrate measured after 30 mins by scintillation proximity assay
[10] = Volume of distribution at steady state in iv dosed rat; format: ADME, organism-based; conditions: in vivo
[11] = Clearance in iv dosed rat; format: ADME, organism-based; conditions: in vivo
[12] = AUC (0 to infinity) in Beagle dog at 0.5 mg/kg, iv measured up to 24 hrs by LC-MS/MS analysis; format: ADME, organism-based, Canis lupus familiaris; design: dose 0.5 mg/kg, time infinity, route intravenous; conditions: in vivo
[13] = target: T1, cGMP-specific 3',5'-cyclic phosphodiesterase
[14] = MRT in Sprague-Dawley rat at 1 mg/kg, iv measured up to 24 hrs by LC-MS/MS analysis; format: ADME, organism-based; conditions: in vivo
[15] = AUC (0 to infinity) in Beagle dog at 0.5 mg/kg, po measured up to 24 hrs by LC-MS/MS analysis; format: ADME, organism-based, Canis lupus familiaris; design: dose 0.5 mg/kg, time infinity, route oral; conditions: in vivo
[16] = AUC (0 to t) in Beagle dog at 0.5 mg/kg, po measured up to 24 hrs by LC-MS/MS analysis; format: ADME, organism-based, Canis lupus familiaris; design: time < 24 hr, dose 0.5 mg/kg, route oral; conditions: in vivo
[17] = target: T1, cGMP-specific 3',5'-cyclic phosphodiesterase; remark: listed apart in the source
Rattus norvegicus [18] = assay: Antihypertensive activity in spontaneously hypertensive rat assessed as reduction in mean arterial pressure at 20 mg/kg administered via single gavage and measured at 4 hrs; format: functional, organism-based
[19] = Tmax in Beagle dog at 0.5 mg/kg, po measured up to 24 hrs by LC-MS/MS analysis; format: ADME, organism-based, Canis lupus familiaris; conditions: in vivo
[20] = Terminal half life in human at 5 mg, po administered once daily measured under phase 1 clinical trials; format: ADME, organism-based; conditions: in vivo, read-out: beta t1/2 (converted)
[21] = MRT in Sprague-Dawley rat at 1 mg/kg, po measured up to 24 hrs by LC-MS/MS analysis; format: ADME, organism-based; conditions: in vivo
[22] = Clearance in Sprague-Dawley rat at 1 mg/kg, iv measured up to 24 hrs by LC-MS/MS analysis; format: ADME, organism-based; conditions: in vivo
[23] = Volume of distribution at steady state in Beagle dog at 0.5 mg/kg, iv measured up to 24 hrs by LC-MS/MS analysis; format: ADME, organism-based, Canis lupus familiaris; conditions: in vivo, read-out: Vdss
[24] = Volume of distribution at steady state in Sprague-Dawley rat at 1 mg/kg, iv measured up to 24 hrs by LC-MS/MS analysis; format: ADME, organism-based; conditions: in vivo, read-out: Vdss
Rattus norvegicus [25] = assay: Antihypertensive activity in spontaneously hypertensive rat assessed as reduction in mean arterial pressure at 20 mg/kg administered via single gavage and measured at 2 hrs; format: functional, organism-based
[26] = MRT in Beagle dog at 0.5 mg/kg, iv measured up to 24 hrs by LC-MS/MS analysis; format: ADME, organism-based, Canis lupus familiaris; conditions: in vivo
[27] = target: Dual 3',5'-cyclic-AMP and -GMP phosphodiesterase 11A (Homo sapiens, UniProt Q9HCR9); assay: Inhibition of N-terminal GST-tagged human PDE11A4 expressed in baculovirus infected sf9 cells using [3H]cGMP as substrate measured after 30 mins by scintillation proximity assay
[28] = Oral bioavailability Beagle dog at 0.5 mg/kg measured up to 24 hrs by LC-MS/MS analysis; format: ADME, organism-based, Canis lupus familiaris; conditions: in vivo
[29] = Half-life in Sprague-Dawley rat at 1 mg/kg, po measured up to 24 hrs by LC-MS/MS analysis; format: ADME, organism-based; conditions: in vivo
[30] = Half-life in Beagle dog at 0.5 mg/kg, po measured up to 24 hrs by LC-MS/MS analysis; format: ADME, organism-based, Canis lupus familiaris; conditions: in vivo
[31] = AUC (0 to infinity) in Sprague-Dawley rat at 1 mg/kg, iv measured up to 24 hrs by LC-MS/MS analysis; format: ADME, organism-based; design: dose 1 mg/kg, time infinity, route intravenous; conditions: in vivo
[32] = AUC (0 to infinity) in Sprague-Dawley rat at 1 mg/kg, po measured up to 24 hrs by LC-MS/MS analysis; format: ADME, organism-based; design: dose 1 mg/kg, route oral, time infinity; conditions: in vivo
[33] = Half-life in Beagle dog at 0.5 mg/kg, iv measured up to 24 hrs by LC-MS/MS analysis; format: ADME, organism-based, Canis lupus familiaris; conditions: in vivo
[34] = Cmax in Sprague-Dawley rat at 1 mg/kg, po measured up to 24 hrs by LC-MS/MS analysis; format: ADME, organism-based; design: dose 1 mg/kg, route oral; conditions: in vivo
[35] = AUC (0 to t) in Beagle dog at 0.5 mg/kg, iv measured up to 24 hrs by LC-MS/MS analysis; format: ADME, organism-based, Canis lupus familiaris; design: time < 24 hr, dose 0.5 mg/kg, route intravenous; conditions: in vivo
[36] = AUC (0 to t) in Sprague-Dawley rat at 1 mg/kg, po measured up to 24 hrs by LC-MS/MS analysis; format: ADME, organism-based; design: time < 24 hr, dose 1 mg/kg, route oral; conditions: in vivo
Rattus norvegicus [37] = assay: Antihypertensive activity in spontaneously hypertensive rat assessed as reduction in mean arterial pressure at 20 mg/kg administered via single gavage measured up to 24 hrs; format: functional, organism-based
[38] = Cmax in Beagle dog at 0.5 mg/kg, po measured up to 24 hrs by LC-MS/MS analysis; format: ADME, organism-based, Canis lupus familiaris; design: dose 0.5 mg/kg, route oral; conditions: in vivo
[39] = target: Cone cGMP-specific 3',5'-cyclic phosphodiesterase subunit alpha' (Homo sapiens, UniProt P51160); assay: Inhibition of N-terminal GST-tagged human PDE6C expressed in baculovirus infected sf9 cells using [3H]cGMP as substrate measured after 30 mins by scintillation proximity assay
[40] = target: T1, cGMP-specific 3',5'-cyclic phosphodiesterase; remark: listed apart in the source
[41] = Oral bioavailability in Sprague-Dawley rat at 1 mg/kg measured up to 24 hrs by LC-MS/MS analysis; format: ADME, organism-based; conditions: in vivo
[42] = AUC (0 to t) in Sprague-Dawley rat at 1 mg/kg, iv measured up to 24 hrs by LC-MS/MS analysis; format: ADME, organism-based; design: time < 24 hr, dose 1 mg/kg, route intravenous; conditions: in vivo
[43] = Half-life in Sprague-Dawley rat at 1 mg/kg, iv measured up to 24 hrs by LC-MS/MS analysis; format: ADME, organism-based; conditions: in vivo
[44] = MRT in Beagle dog at 0.5 mg/kg, po measured up to 24 hrs by LC-MS/MS analysis; format: ADME, organism-based, Canis lupus familiaris; conditions: in vivo
[45] = Tmax in Sprague-Dawley rat at 1 mg/kg, po measured up to 24 hrs by LC-MS/MS analysis; format: ADME, organism-based; conditions: in vivo
[46] = Clearance in Beagle dog at 0.5 mg/kg, iv measured up to 24 hrs by LC-MS/MS analysis; format: ADME, organism-based, Canis lupus familiaris; conditions: in vivo

Chain of Cone cGMP-specific 3',5'-cyclic phosphodiesterase subunit alpha' (P51160 whole entry): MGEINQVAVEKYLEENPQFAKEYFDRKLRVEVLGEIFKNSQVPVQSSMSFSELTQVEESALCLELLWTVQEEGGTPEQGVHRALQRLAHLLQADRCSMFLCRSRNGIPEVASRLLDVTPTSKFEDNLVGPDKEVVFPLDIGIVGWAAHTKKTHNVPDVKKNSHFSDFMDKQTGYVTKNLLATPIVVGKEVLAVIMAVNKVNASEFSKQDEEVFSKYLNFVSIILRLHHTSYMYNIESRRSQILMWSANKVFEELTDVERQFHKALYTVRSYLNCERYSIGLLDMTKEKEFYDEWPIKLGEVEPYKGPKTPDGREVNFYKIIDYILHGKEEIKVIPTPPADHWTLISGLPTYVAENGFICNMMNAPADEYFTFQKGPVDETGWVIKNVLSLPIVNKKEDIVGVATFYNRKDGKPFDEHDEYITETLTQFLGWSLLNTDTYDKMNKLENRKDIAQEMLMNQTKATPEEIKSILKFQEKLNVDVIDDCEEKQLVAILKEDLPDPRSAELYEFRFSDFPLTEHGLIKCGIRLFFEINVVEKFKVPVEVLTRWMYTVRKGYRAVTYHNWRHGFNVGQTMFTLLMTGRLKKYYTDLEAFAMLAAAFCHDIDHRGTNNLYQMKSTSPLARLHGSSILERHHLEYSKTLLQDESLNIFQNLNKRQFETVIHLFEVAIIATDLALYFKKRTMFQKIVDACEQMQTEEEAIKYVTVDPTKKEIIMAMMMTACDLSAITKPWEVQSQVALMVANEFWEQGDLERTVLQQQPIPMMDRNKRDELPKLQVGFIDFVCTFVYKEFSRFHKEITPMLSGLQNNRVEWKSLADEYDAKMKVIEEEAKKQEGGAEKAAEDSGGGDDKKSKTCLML
Chain of Dual 3',5'-cyclic-AMP and -GMP phosphodiesterase 11A (Q9HCR9 whole entry): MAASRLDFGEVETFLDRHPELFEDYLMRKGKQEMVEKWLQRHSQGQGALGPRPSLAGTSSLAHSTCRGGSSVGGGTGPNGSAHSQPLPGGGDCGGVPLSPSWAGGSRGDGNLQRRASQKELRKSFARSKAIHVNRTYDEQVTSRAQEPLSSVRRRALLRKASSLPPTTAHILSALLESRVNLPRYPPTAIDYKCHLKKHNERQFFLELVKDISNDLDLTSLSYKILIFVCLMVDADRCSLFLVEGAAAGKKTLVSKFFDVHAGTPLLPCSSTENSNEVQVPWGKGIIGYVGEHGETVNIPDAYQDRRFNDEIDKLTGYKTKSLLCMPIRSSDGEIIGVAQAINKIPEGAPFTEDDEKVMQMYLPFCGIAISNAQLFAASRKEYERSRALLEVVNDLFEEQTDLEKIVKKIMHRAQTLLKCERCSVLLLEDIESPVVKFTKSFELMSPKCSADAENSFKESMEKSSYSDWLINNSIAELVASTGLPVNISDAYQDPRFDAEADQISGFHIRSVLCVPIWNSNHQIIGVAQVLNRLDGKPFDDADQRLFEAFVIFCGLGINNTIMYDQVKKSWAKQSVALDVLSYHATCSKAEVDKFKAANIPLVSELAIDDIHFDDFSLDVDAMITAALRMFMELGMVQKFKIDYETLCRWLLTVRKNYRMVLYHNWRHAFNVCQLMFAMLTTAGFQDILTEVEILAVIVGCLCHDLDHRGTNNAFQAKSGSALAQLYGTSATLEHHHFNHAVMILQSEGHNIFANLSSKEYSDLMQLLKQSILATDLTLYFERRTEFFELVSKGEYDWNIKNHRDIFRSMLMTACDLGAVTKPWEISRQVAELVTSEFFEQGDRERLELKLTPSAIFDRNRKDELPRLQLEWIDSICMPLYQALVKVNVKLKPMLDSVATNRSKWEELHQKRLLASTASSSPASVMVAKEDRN
Chain of High affinity cAMP-specific and IBMX-insensitive 3',5'-cyclic phosphodiesterase 8A (O60658 whole entry): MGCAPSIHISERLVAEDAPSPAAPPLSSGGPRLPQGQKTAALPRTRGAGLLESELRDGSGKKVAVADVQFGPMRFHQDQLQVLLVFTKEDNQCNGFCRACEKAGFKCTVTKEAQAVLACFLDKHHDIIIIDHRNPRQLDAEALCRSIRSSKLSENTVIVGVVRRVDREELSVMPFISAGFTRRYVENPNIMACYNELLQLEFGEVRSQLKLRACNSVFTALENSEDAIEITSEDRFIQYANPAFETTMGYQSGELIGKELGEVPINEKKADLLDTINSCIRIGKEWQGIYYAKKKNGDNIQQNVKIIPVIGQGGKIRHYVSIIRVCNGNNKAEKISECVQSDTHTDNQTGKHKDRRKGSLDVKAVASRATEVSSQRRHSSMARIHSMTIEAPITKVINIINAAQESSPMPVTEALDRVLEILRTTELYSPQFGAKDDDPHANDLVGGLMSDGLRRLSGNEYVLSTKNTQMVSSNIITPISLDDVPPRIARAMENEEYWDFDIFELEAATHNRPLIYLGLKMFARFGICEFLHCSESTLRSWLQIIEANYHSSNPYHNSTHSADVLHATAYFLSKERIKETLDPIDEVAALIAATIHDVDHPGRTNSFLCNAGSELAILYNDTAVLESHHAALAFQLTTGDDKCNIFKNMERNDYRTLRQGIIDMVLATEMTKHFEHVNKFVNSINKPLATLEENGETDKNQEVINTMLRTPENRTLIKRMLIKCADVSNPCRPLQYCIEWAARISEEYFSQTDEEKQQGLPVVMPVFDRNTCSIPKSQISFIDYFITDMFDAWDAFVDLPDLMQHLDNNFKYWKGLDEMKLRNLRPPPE
Chain of High affinity cGMP-specific 3',5'-cyclic phosphodiesterase 9A (O76083 whole entry): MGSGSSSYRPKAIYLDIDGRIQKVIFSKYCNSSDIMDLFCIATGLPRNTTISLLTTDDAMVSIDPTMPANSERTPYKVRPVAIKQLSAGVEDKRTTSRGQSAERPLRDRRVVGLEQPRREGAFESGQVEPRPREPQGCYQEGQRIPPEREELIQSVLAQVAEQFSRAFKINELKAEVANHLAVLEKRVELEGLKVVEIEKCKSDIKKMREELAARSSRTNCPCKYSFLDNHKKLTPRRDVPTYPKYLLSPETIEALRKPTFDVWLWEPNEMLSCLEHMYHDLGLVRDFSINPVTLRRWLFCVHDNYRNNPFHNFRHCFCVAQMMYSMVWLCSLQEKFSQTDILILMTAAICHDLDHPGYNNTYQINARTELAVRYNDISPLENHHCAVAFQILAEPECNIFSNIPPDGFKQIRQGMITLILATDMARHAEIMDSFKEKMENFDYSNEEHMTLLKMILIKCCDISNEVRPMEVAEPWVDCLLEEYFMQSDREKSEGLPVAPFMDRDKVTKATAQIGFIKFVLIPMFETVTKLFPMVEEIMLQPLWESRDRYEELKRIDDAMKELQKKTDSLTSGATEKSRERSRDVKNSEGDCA
Chain of cGMP-dependent 3',5'-cyclic phosphodiesterase (O00408 whole entry): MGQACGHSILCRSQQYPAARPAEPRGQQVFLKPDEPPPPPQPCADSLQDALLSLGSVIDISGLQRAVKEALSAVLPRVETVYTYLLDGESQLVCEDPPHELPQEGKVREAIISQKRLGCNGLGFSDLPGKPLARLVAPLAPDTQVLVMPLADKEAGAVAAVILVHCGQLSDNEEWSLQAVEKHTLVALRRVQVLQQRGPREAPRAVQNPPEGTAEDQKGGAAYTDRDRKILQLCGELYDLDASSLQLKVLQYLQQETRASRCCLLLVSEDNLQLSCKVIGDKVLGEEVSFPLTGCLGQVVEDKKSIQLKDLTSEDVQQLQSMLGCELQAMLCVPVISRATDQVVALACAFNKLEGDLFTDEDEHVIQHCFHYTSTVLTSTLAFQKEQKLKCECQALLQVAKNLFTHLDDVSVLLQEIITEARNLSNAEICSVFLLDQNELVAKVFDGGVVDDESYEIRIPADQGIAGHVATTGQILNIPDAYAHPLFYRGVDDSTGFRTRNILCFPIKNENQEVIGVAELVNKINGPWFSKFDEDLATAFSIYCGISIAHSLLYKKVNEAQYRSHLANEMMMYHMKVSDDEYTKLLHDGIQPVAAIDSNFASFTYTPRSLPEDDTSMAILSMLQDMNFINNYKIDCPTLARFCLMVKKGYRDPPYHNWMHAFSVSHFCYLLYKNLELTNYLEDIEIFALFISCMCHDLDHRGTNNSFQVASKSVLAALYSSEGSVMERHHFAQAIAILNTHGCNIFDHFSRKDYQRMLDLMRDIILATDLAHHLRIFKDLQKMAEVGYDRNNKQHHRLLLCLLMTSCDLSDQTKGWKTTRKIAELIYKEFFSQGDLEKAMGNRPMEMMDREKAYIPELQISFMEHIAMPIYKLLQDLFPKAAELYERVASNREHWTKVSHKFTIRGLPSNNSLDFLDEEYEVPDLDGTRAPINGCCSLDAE

IC50 [1]: 0.00155 µM | Ratio IC50 (Homo sapiens): 17
Structure (SMILES): CCCOc1ccc(NC(=O)C(=O)N2CCN(C)CC2)cc1-c1nc(CC)c(CC)c(=O)[nH]1

remaining at 0.5 h, 1 µM [2]: 27% | Ratio IC50 (Homo sapiens): 28
Structure (SMILES): CCCOc1ccc(NS(C)(=O)=O)cc1-c1nc(CC)c(CC)c(=O)[nH]1

AUC [12]: 0.773 µg·h/mL | -TdeltaS [13]: 49 kJ/mol | MRT [14]: 2.22 h | AUC [15]: 0.514 µg·h/mL | AUCt [16]: 0.495 µg·h/mL | deltaG [17]: -41.1 kJ/mol | Tmax [19]: 1.9 h | half-life [20]: 10.9 h | MRT [21]: 5.56 h | clearance [22]: 2.26 L/h/kg | Vd [23]: 3.83 L/kg | Vd [24]: 4.97 L/kg | MRT [26]: 6.07 h | IC50 [27]: 0.998 µM | bioavailability [28]: 67% | half-life [29]: 2.82 h | half-life [30]: 4.89 h | AUC [31]: 0.412 µg·h/mL | AUC [32]: 0.284 µg·h/mL | half-life [33]: 4.5 h | Cmax [34]: 0.0439 µg/mL | AUCt [35]: 0.752 µg·h/mL | AUCt [36]: 0.268 µg·h/mL | Cmax [38]: 0.0665 µg/mL | IC50 [39]: 0.0198 µM | deltaH [40]: -90.1 kJ/mol | IC50 (Phosphodiesterase 1): 3.64 µM | bioavailability [41]: 66.4% | AUCt [42]: 0.403 µg·h/mL | half-life [43]: 2.4 h | remaining at 0.5 h, 1 µM [2]: 91% | MRT [44]: 7.21 h | Tmax [45]: 2.8 h | clearance [46]: 0.648 L/h/kg
Structure (SMILES): CCCOc1ccc(NC(=O)CN2CCN(C)CC2)cc1-c1nc(CC)c(CC)c(=O)[nH]1
Activity (Rattus norvegicus [18]): Active | Activity (Rattus norvegicus [3]): Active | Activity (Rattus norvegicus [25]): Active | Activity (Rattus norvegicus [4]): Active | Activity (Rattus norvegicus [37]): Active | Activity (Rattus norvegicus [5]): Active

IC50 [1]: 0.00146 µM | Ratio IC50 (Homo sapiens): 9
Structure (SMILES): CCCOc1ccc(NC(=O)CN2CCCCC2)cc1-c1nc(CC)c(CC)c(=O)[nH]1

More lines, now with the values behind:

Structure (SMILES): CCCOc1ccc(S(=O)(=O)N2CCC[C@H]2C(=O)O)cc1-c1nc(CC)c(CC)c(=O)[nH]1
IC50 [1]: 0.00202 µM | Ratio IC50 (Homo sapiens): 20

Structure (SMILES): CCCOc1ccc(S(=O)(=O)N2CCN(C)CC2)cc1-c1nc(CC)c(CC)c(=O)[nH]1
remaining at 0.5 h, 1 µM [2]: 29%

Structure (SMILES): COc1ccccc1Oc1c(NS(=O)(=O)c2ccc(C(C)(C)C)cc2)nc(-c2ncccn2)nc1OCCO
Activity (Rattus norvegicus [3]): Active | Activity (Rattus norvegicus [4]): Active | Activity (Rattus norvegicus [5]): Active

Structure (SMILES): CN1CC(=O)N2[C@H](c3ccc4c(c3)OCO4)c3[nH]c4ccccc4c3C[C@@H]2C1=O
IC50 (Phosphodiesterase 3): > 10 µM | IC50 [6]: > 10 µM | IC50 [7]: > 10 µM | IC50 (Phosphodiesterase 7): > 10 µM | IC50 [8]: > 10 µM | IC50 [9]: > 10 µM | IC50 (Phosphodiesterase 1): > 10 µM | Vdss [10]: 5.2 L/kg | CL [11]: 0.31 L/h/kg

Structure (SMILES): CCCOc1ccc(S(=O)(=O)N(CCO)CCN2CCOCC2)cc1-c1nc(CC)c(CC)c(=O)[nH]1
Ratio IC50 (Homo sapiens): 10
